What is called melting point is the temperature, or range, at which the solid turns liquid.

Some results are limits rather than exact numbers.

For the compound `COC(C)CCC1(O)C2=NCCCN2c2cccc(Cl)c21` (stereo unspecified), the melting point is 164 to 165 °C.

`COc1ccc(N=C(C#Cc2ccccc2)N2CCN(Cc3ccc(C)cc3)CC2)cc1Cl`: the melting point stood at 113 °C.

The compound `CCCCn1sc2nccn2c1=O` had a melting point of 142 to 143 °C.

The compound `O=C(/C=C/[C@@H]1[C@H]2CC(=O)O[C@H]2C[C@H]1OC(=O)c1ccccc1)COc1ccccc1` displayed a melting point of 132 °C.

`CC(C)N(C(N)=O)C(Oc1ccccc1)C(C)(O)Cl` (stereo unspecified) yielded a melting point of 154 °C.

For the compound `CCOC(=O)c1cnc2ccc(C(=O)c3ccc(Cl)cc3)cc2c1O`, the melting point is more than 300 °C.

The compound `CC(O)C(=O)Nc1ccc(C2=NNC(=O)CC2C)cc1` (stereo unspecified) had a melting point of 181 to 182 °C.

Compound `OCC#Cc1ccc(F)cc1` yielded a melting point of 32 to 33 °C.

In the case of `O=C1CC(c2ccccc2)Cc2occ(C(F)(F)F)c21` (stereo unspecified), the melting point was 107 to 108 °C.

With `CC1Cc2cc3c(cc2C(c2ccc([N+](=O)[O-])cc2)=NN1C#N)OCO3` (stereo unspecified), the melting point lay within 172 to 176 °C.

With `Clc1cc(Cc2c(Cl)cccc2Cl)nc(Cl)n1`, the melting point lay in the range of 106 to 107 °C.

As to `CC(=O)NCc1ccc(/C=C/C(c2cc(Cl)cc(Cl)c2)C(F)(F)F)cc1` (stereo unspecified), the melting point is 107 to 109 °C.

The compound `CC(C)C[C@H](CN)CC(=O)O` came in with a melting point of 192 to 196 °C.

On to `Cc1cc(-c2ccc(C(F)(F)F)cc2)nc(-n2cnc(-c3cccc(S(N)(=O)=O)c3)c2)n1`, for which the melting point was determined as 186 °C.

On to `CCc1c(NC(=O)c2cc(S(C)(=O)=O)ccc2OCC(C)C)c(C(N)=O)nn1C1CCN(C(=O)OC(C)(C)C)CC1`, for which the melting point is 134 to 141 °C.

With `Oc1c2c(nc3ccc(C4CCCCC4)cc13)CCCC2`, the melting point lay within 292 to 295 °C.

`CCCCc1nc2c(=O)n(Cc3ccc(-c4ccccc4C#N)cc3)ccc2n1Cc1ccc(-c2ccccc2C#N)cc1` gave a melting point of 83 °C.

`c1ccc(C2CN3CCN=C3S2)nc1` (stereo unspecified) returned a melting point of 70 °C.

In the case of `O=C(O)COc1ccc(-c2cc(O)c(Sc3ccccc3)c(=O)o2)cc1`, the melting point lay within 186 to 188 °C.

Take `CC(C)(C)OC(=O)N1CCC[C@H]1c1nc2c(C(F)(F)F)cccc2c(O)c1C(=O)Nc1nccs1`: the melting point was 215 °C.

As for `CC(=O)Nc1ccc(C(=O)N2CCN(CCc3ccc(Cl)cc3)CC2)cc1`, the melting point is 147 to 149 °C.

`CC(C)(Nc1ccc(OCc2ccccc2)cc1)C(=O)O`: the melting point was determined as 210 °C.

The compound `CC(=O)CCC(CC=O)C(C)(C)OC(C)=O` (stereo unspecified) returned a melting point of 24 °C.

`COC(=O)C[C@H](Cc1ccc(-c2ccccc2)cc1)NC(=O)OC(C)(C)C` registered a melting point of 86 to 87 °C.

Take `CC(Oc1ccc(Cl)c(Cl)c1)c1nnc(N)s1` (stereo unspecified): the melting point was 136 to 138 °C.

In the case of `CC(C)(C)CC(=O)c1c(-c2ccc3c(Br)c(OCC(=O)O)ccc3c2)oc2ccccc12`, the melting point fell in the range of 151 to 153 °C.

For the compound `CC1(C)OC(=O)Nc2ccc(-c3ccc(C#N)c(F)c3)cc21`, the melting point lay in the range of 272 to 275 °C.

The compound `CCn1nnc(-c2cccc(-c3ccnc4c(-c5cc(C)cc(C)c5)cnn34)c2)n1` registered a melting point of 65 °C.

The compound `O=c1n(-c2cc(O)c([N+](=O)[O-])cc2F)nc2ccc(Cl)cn12` showed a melting point of 207 to 209 °C.

The compound `CCCCCCOC(=O)Oc1ccc(-c2ccc(C#N)cc2)cc1` displayed a melting point of 87.1 to 87.5 °C.

In turn, `CC(C)C(C)(C)NC(N)=O` showed a melting point of 175 to 176 °C.

The compound `c1ccc2cc(NC3=NCC4(CN5CCC4CC5)O3)ncc2c1` (stereo unspecified) registered a melting point of 196 to 200 °C.

Compound `CCN1C(Oc2ccc(C)cc2)=NS(=O)(=O)N=C1Oc1ccc(C)cc1` had a melting point of 302 to 304 °C.

`CN(CCN1CCN(c2cccc3c2OCCO3)CC1)c1cnn(C)c(=O)c1Cl` displayed a melting point of 114 to 116 °C.

`CCOC(=O)N1CCC(c2ccc3nc(-c4ccc(S(C)(=O)=O)cc4F)oc3c2)CC1` displayed a melting point of 154 to 158 °C.

As for `CCOCc1nc2c(N)nc3cc(N4CCCCC4=O)ccc3c2n1CCCOC(C)C`, the melting point lay in the range of 205 to 206 °C.

Turning to `CC(=O)c1ccc(-c2ccc(F)cc2)c(N)c1`, the melting point is 88 to 91 °C.

In the case of `COc1ccc(C2Nc3ccc(Cl)cc3C(C#CC3CC3)(C(F)(F)F)O2)cc1OC` (stereo unspecified), the melting point is 172 to 175 °C.

Consider `COc1cc(Nc2nccc(-c3ccc(N4CCN(CCCO)CC4)nc3)n2)cc(OC)c1OC`, for which the melting point was 116 to 117 °C.

`COc1nc2sccc2c2nc(S(=O)(=O)Nc3c(Cl)cccc3Cl)nn12` returned a melting point of 224 to 226 °C.

For `COc1ccc(C(=O)Nc2c(Cl)cncc2Cl)c2c(CC(=O)O)coc12`, the melting point was in the range of 270 to 278 °C.

For the compound `O=C(O)CCc1cn(Cc2ccccc2)c2ccccc12`, the melting point lay in the range of 110 to 112 °C.

`Cc1ccc(Nc2nc(CO)cs2)c(O)c1` returned a melting point of 188 to 190 °C.

In turn, `O=C(COc1ccc(-c2ccccc2)cc1Br)c1ccccc1` displayed a melting point of 93 to 95 °C.

In turn, `CC(C)OC(=O)c1cn(-c2cccc(Cl)c2)cn1` displayed a melting point of 109 °C.

As for `Cn1c(=O)c2[nH]c(C3(N)CCCC3)nc2n(C)c1=O`, the melting point was 288 to 290 °C.

For `N#Cc1c(O)nsc1S(=O)(=O)c1ccccc1`, the melting point fell in the range of 163 to 164 °C.

The compound `COC(=O)c1ncn2c1CN=C(c1ccccc1F)c1cc(Cl)ccc1-2` displayed a melting point of 179 to 181 °C.

`Cn1cc(Cl)c(=O)c(-c2cccc(C(F)(F)F)c2)c1` displayed a melting point of 170 to 172 °C.

On to `COC(=O)COc1cc(C(=O)OC)nc2ccccc12`, for which the melting point was in the range of 121 to 123 °C.

`COC(=O)CC(C(=O)OC)N1C(=O)C2NC(C)(C)SC21` (stereo unspecified) came in with a melting point of 136 to 137 °C.

The compound `O=C1CCc2ccc(OCCCl)cc21` returned a melting point of 76 to 80 °C.

Compound `COc1cc(Br)c(Br)cc1N1CCN(CCCNc2c(C)c(=O)n(C)c(=O)n2C)CC1` registered a melting point of 153 to 155 °C.

In the case of `CC(=O)Nc1ccc(S(=O)(=O)C/C=C2/CN3C(=O)C[C@H]3O2)cc1`, the melting point was in the range of 110 to 111 °C.

As for `COc1cc(C(C#N)CCC(C#N)c2cc(OC)c(OC)c(OC)c2)cc(OC)c1OC` (stereo unspecified), the melting point was 173 to 174 °C.

As for `CC(=O)Nc1ncsc1-c1ccccc1`, the melting point fell in the range of 105 to 107 °C.

As to `NC(=O)c1ccccc1N1CCN(CC[C@H]2OCCc3ccccc32)CC1`, the melting point is 157 to 158 °C.

In turn, `CCCCCCCCCCCCSC(C)(C)C(=O)O` returned a melting point of 62 to 64 °C.

Compound `CC(C)n1cc(-c2ncc(N)nc2-c2ccc(F)cc2)ccc1=O` showed a melting point of 258 °C.

Take `CN1Cc2c(C(N)=NO)ncn2-c2cccc(Cl)c2C1=O`: the melting point was more than 250 °C.

For the compound `CC(C)(C)OC(=O)N1CCC(CNc2c([N+](=O)[O-])cnc3cc(-c4ccccc4)ccc23)CC1`, the melting point is 153 to 154 °C.

Regarding `CCN(CC)CCNC(=S)N(CCS(=O)(=O)c1ccccc1)C(C)C`, the melting point is 81.5 to 82.5 °C.

In the case of `CNc1nc(-c2cccc(NC(=O)c3ccccc3OCc3ccccc3)c2)c2cc(OC)c(OC)cc2n1`, the melting point was 192 to 194 °C.

Turning to `CN(C)CCCCC1CCCN(CCNC(=O)N2c3ccccc3C(=O)Nc3cccnc32)C1` (stereo unspecified), the melting point is 119 to 120 °C.

Compound `O=C1Nc2ccc(Cl)cc2C1c1ncnc2c1cnn2C1CCCCC1` (stereo unspecified) displayed a melting point of 300 to 305 °C.

With `CCCCCCCOc1ccc(C(=O)O)cc1OCCCCCCC`, the melting point fell in the range of 122 to 123 °C.

The compound `O=C(Nc1ccccc1F)c1c[nH]c2c1C(=O)CCC2` registered a melting point of 238 to 240 °C.

The compound `Cc1cc(-n2ccnc2)c2cccc(OCc3c(Cl)ccc(S(=O)(=O)N4CCC[C@H]4C(=O)N4CCN(Cc5cccnc5)CC4)c3Cl)c2n1` returned a melting point of 102 °C.

Consider `COc1ccc(Sc2ccnc(Nc3ccc(OCCN(C)C)cc3)n2)cc1`, for which the melting point was 112 to 113 °C.

In turn, `O=C(NC(Cc1ccc(OCc2ccccc2)cc1)C(=O)O)c1cc2ccc(-c3ccc(Cl)cc3)cc2s1` (stereo unspecified) yielded a melting point of 237 to 239 °C.

On to `CCOc1ccccc1O[C@@H](c1ccccc1)[C@@H](CO)OS(C)(=O)=O` (racemic), for which the melting point fell in the range of 83 to 86 °C.

In turn, `OCc1ccc2c(c1)ncn2Cc1ccccc1` had a melting point of 148 to 150 °C.

`COc1ccc2[nH]c(SCc3ncc(C)c(OC)c3C)nc2c1`: the melting point was in the range of 120 to 121 °C.

Regarding `CCCC12CCC(CC(=O)O)(CC1)CC2`, the melting point came out at 85 °C.

The compound `O=C(NCCCC1OCC(c2cccc3ccccc23)CO1)C(F)(F)F` (stereo unspecified) showed a melting point of 83 to 84 °C.

`O=C1CC(c2ccc(F)cc2)c2ccc(F)cc21` (stereo unspecified): the melting point was 70 to 73 °C.

Take `CCCc1nc2c(N)nc3cc(OCc4ccc(C(F)(F)F)cc4)ccc3c2n1CC(C)C`: the melting point was in the range of 192 to 194 °C.

`CCCCc1ncc(/C=C(\Cc2ccc([N+](=O)[O-])cc2)C(=O)O)n1Cc1ccccc1Cl` had a melting point of 207 to 208 °C.

The compound `CC(=O)Nc1ccc2c(c1)N1CCN=C1S2` yielded a melting point of 268 °C.

Take `O=Ic1ccc(Cl)cc1[N+](=O)[O-]`: the melting point was found to be 118 °C.

As for `O=C(c1cc(N2CCC3(CC2)OCCO3)ccn1)N(O)Cc1ccccc1`, the melting point lay within 98 to 102 °C.

With `CCn1c(=O)c(C)cc2cnc(Nc3ccccc3)nc21`, the melting point was in the range of 178 to 180 °C.

Turning to `O=C(O)c1cnn2c(C(F)(F)F)cc(-c3ccc(OC(F)(F)F)cc3)nc12`, the melting point was 225 °C.

In turn, `Cc1ccccc1-c1cccc(F)c1C#N` came in with a melting point of 57 to 58 °C.

`O=c1c2cccnc2n(-c2cccc(CO)c2)c(=O)n1Cc1cccnc1` showed a melting point of 197 to 198 °C.

Compound `COc1ccccc1-c1ccc(Cl)c2c1S(=O)(=O)NC(C1CCCCC1)=N2` registered a melting point of 100 to 105 °C.

In turn, `NC(=O)COC(=O)c1ccccc1` had a melting point of 118 °C.

Turning to `CS(=O)(=O)Nc1ccc(OCCCCl)cc1`, the melting point lay within 120 to 122 °C.

Take `O=[N+]([O-])c1ccccc1C1=NCC(=S)Nc2sc(Cl)cc21`: the melting point is 213 to 215 °C.

The compound `COc1cc(C(=O)OCc2ccc3nc(N)nc(N)c3c2)cc(OC)c1OC` gave a melting point of 223 to 227 °C.

As to `Cc1nccn1-c1nc(-c2ccc(Cl)cc2)c(CCC(=O)OCc2ccccc2)o1`, the melting point lay within 71 to 72 °C.

For the origin of these results see a melting point compilation (Tetko et al.; mined from patent text by program, amines drawn as free bases though some values may be those of a salt).
